Results on 8 compounds are retold here after paper PMC12297533 (Scientific Reports, 2025).

The target in data set [1] is T1, COX-1 (Homo sapiens, UniProt P23219).
T1 construct: purchased Cayman No.548
Put plainly: In vitro COX-1 enzyme inhibitory assay (Cayman kit). The class given is biochemical. The settings on record: mean ± SD, n = 3. On the procedure:
(§1) The ability to inhibit COX-1 and COX-2 enzymes was evaluated as previously reported[35],[36], using COX-1 Cayman human enzyme inhibitory assay kit (No.548, USA), COX-2 Cayman human enzyme inhibitory assay kit (No.547, USA) and Tecan Spark reader. […] The % Relative Inhibition was calculated as follows: [drawing 1]

In data set [2] the target is T2, COX-2 (Homo sapiens, UniProt P35354).
T2 construct: purchased Cayman No.547
T2 sequence (P35354 18-604): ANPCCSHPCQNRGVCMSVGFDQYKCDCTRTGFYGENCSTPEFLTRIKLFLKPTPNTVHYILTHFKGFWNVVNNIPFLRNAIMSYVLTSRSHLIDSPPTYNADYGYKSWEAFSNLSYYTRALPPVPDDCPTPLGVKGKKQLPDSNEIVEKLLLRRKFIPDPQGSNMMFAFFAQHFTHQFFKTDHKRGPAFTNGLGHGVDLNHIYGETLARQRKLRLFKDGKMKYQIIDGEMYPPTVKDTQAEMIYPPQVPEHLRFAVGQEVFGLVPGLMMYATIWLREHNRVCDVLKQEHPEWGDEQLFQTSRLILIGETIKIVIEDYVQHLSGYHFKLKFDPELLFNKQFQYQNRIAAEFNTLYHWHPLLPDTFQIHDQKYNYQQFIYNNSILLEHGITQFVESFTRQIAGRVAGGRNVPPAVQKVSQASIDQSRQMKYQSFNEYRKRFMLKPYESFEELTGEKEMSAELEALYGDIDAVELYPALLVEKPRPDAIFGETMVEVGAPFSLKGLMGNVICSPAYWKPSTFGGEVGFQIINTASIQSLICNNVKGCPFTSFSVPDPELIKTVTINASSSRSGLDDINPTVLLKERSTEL
As to the kind of experiment: In vitro COX-2 enzyme inhibitory assay (Cayman kit). The class given is biochemical. Conditions: for IC50: mean ± SD, n = 3. On the procedure: as §1

Data set [3] deals with AChE (Homo sapiens, UniProt P22303). As to the kind of experiment: biochemical. Conditions: for Inhibitory activity against AChE: concentrations up to 100 µM.
In data set [4] the test system is SH-SY5Y cells. As to the kind of experiment: Protection against H2O2 induced-neurotoxicity. The class given is cell-based, human. Conditions: 150 μM H2O2; for Neuroprotective activity against H2O2: 6.25, 12.5, 25 μM. The method, then: H2O2 concentration that caused 50% reduction in cell viability was evaluated as previously reported. Then the cultured cells (2 × 10^4 cells/well) were incubated with test samples (at non-cytotoxic concentrations: 6.25, 12.5, 25 μM) or catechin as a positive control (at non-cytotoxic concentrations: 6.25, 12.5, 25, 50, 100 μM). Lastly, the WST-1 reagent was used to evaluate the cell viability as reported.

Data set [5] relates to SH-SY5Y cells. As to the kind of experiment: Determination of non-cytotoxic concentrations (WST-1 cell viability). Conditions: for Non-cytotoxic concentration on SH-SY5Y cells: human; for Concentration showing cytotoxic effect on SH-SY5Y cells: tested 6.25-200 μM. The class given is cell-based. The method, then:
In this assay, the non-toxic concentrations of the tested samples to SH-SY5Y cells, along with catechin[58] and epicatechin-3-gallate[59] as a positive controls were used for the evaluation of the neuroprotective activity. […]. Cell viability was then assessed using a previously described method.

For data set [6], the system named is SH-SY5Y cells. As to the kind of experiment: Protection against Aβ1-42 induced-neurotoxicity. The class given is cell-based, human. The settings on record: only at 50 and 100 μM; Aβ1-42 25 μM. The method, then: Finally, evaluation of cell viability was conducted.
Where [7] appears, read: mean ± SD, n = 3, read-out: AChE inhibition IC50.

By IC50 is commonly meant the concentration that gives 50% inhibition. For orientation: inhibition means the change of the read-out against control, counted positive when it falls.

Read-outs that look alike come from different tables or passages of the source.

AChE, sequence (P22303 32-614): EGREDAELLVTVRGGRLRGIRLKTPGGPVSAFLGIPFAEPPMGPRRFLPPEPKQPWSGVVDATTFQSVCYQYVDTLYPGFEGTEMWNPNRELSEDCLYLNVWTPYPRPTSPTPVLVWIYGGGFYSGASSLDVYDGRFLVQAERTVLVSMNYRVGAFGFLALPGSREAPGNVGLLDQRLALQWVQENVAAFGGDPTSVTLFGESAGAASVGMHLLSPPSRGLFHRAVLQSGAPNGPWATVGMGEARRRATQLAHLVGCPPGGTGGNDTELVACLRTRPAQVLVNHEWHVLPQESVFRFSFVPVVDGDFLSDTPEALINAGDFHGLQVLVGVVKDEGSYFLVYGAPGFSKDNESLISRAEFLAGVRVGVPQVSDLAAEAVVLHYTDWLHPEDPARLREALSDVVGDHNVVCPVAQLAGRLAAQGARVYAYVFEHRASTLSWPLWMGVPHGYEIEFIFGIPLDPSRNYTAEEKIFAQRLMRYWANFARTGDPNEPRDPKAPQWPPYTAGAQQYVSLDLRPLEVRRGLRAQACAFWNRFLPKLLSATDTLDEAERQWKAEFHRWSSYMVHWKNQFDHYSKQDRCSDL
T1 sequence (P23219 24-599): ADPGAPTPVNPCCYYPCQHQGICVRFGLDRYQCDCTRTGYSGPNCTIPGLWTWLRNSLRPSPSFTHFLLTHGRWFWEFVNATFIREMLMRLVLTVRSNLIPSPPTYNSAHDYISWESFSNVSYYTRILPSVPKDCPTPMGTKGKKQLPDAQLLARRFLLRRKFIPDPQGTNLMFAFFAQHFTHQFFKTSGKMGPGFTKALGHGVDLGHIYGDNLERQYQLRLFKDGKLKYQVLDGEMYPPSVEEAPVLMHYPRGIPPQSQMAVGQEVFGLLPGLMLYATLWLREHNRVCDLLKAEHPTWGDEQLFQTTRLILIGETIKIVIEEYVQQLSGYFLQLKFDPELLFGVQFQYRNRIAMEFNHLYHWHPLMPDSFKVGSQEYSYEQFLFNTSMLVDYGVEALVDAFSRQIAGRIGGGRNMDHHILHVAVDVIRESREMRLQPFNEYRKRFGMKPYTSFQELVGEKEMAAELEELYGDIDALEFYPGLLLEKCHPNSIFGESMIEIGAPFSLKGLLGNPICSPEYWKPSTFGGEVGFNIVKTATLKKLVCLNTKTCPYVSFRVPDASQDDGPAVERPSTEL

Turning to `CC1=CCC(C(C)(O)CCC(O)C(C)(C)O)CC1` (stereo not drawn) [Metabolite 2, 10β,11-dihydroxy-α-bisabolol], the IC50 in data set [1] was determined as 71 ± 4.4 µM; in data set [2] it was 17.3 ± 0.66 µM; in data set [3] (setting [7]) it was 12.9 µM. In addition, the “COX-2 selective index S.I = IC50 COX-1/IC50 COX-2” value in data set [2] is 4.093.

Take `CC(C)=CCC[C@](C)(O)[C@@H]1CC=C(C(=O)O)CC1` [Metabolite 3, Hamanasic acid A]: the IC50 was 28.1 ± 1.74 µM in data set [1], 6.45 ± 0.24 µM in data set [2] and > 100 µM in data set [3] (setting [7]). For the same compound, the “COX-2 selective index S.I = IC50 COX-1/IC50 COX-2” value in data set [2] stood at 4.362. Further, the “Neuroprotective activity against H2O2” value in data set [4] is “didn’t show any neuroprotective activity”. Further, the inhibition at 100 µM in data set [3] (at 100 µM) stood at 20%.

Regarding `CC(C)=CCCC(C)(O)C1CCC(C)CC1` (stereo not drawn) [Metabolite 4, 2,3-dihydro-α-bisabolol], the IC50 in data set [1] was 35.3 ± 2.18 µM; in data set [2], 4.11 ± 0.15 µM; in data set [3] (setting [7]), > 100 µM. Besides, the “COX-2 selective index S.I = IC50 COX-1/IC50 COX-2” value in data set [2] was found to be 8.598. Further, the “Inhibitory activity against AChE” value in data set [3] is given as “no inhibitory activity”.

Turning to `COC(=O)C1=CCC(C(C)CCC2OC2(C)C)CC1` (stereo not drawn) [Metabolite 5, 7-dehydroxy-10,11-epoxy-3-methylcarboxy-α-bisabolol], the IC50 in data set [1] is 16.8 ± 1.04 µM; in data set [2] it was 2.51 ± 0.09 µM; in data set [3] it was > 100 µM. In data set [2], the “COX-2 selective index S.I = IC50 COX-1/IC50 COX-2” value is 6.711. Moreover, the “Neuroprotective activity against H2O2” value in data set [4] is reported as “didn’t show any neuroprotective activity”. In data set [3], the “Inhibitory activity against AChE” value was “no inhibitory activity”.

Take `CC(C)(O)C(O)CCC(C)(O)C1CC=C(CO)CC1` (stereo not drawn) [Metabolite 6, 10β,11,15-trihydroxy-α-bisabolol]: the 50% inhibitory concentration (IC50) in data set [1] is 67.8 ± 2.28 µM; in data set [2], 5.39 ± 0.18 µM; in data set [3] (setting [7]), > 100 µM. For the same compound, in data set [2], the “COX-2 selective index S.I = IC50 COX-1/IC50 COX-2” value worked out at 12.58. Also, the “Non-cytotoxic concentration on SH-SY5Y cells” value in data set [5] is ≤ 12.5 µM. Further, the “Inhibitory activity against AChE” value in data set [3] is “no inhibitory activity”.

`O.Oc1cc(O)c2c(c1)O[C@H](c1ccc(O)c(O)c1)[C@@H](O)C2` [catechin, reference compound]: in data set [4] (only at 50 and 100 μM), the “Neuroprotective effect against H2O2” value is on record as “exhibited neuroprotective effects”. The “Concentration showing cytotoxic effect on SH-SY5Y cells” value in data set [5] was 200 µM.

On to `CC(C)=CCCC(C)(O)C1CC=C(C)CC1` (stereo not drawn) [α-Bisabolol, (-)-α-bisabolol, reference compound], for which half-maximal inhibition in data set [1] (IC50) required 20.1 ± 1.19 µM. In addition, in data set [2], the “COX-2 selective index S.I = IC50 COX-1/IC50 COX-2” value is listed as 6.889 and 2.92 ± 0.13 µM corresponded to half-maximal inhibition (IC50). The “Non-cytotoxic concentration on SH-SY5Y cells” value in data set [5] is ≤ 25 µM. Also, in data set [3], the concentration for half-maximal inhibition (IC50) is > 100 µM and the “Inhibitory activity against AChE” value was “no inhibitory activity”.

Turning to epicatechin-3-gallate, the “Neuroprotection against Aβ1-42” value in data set [6] is “exhibited neuroprotection”. Besides, in data set [5], the “Concentration showing cytotoxic effect on SH-SY5Y cells” value was 200 µM.
